“And” between values parts separate entries of the source, which are not always exact repeats. Equal values may be shown once.
Details: 283.14 K, Liquid, Vibrating tube method

CCCCCCC(=O)OCC(COC(=O)CCCCCC)(COC(=O)CCCCCC)COC(=O)CCCCCC [pentaerythritol tetraheptanoate]
Details | mass density
4385.6 kPa | 988.4 kg/m3
4385.7 kPa | 988.4 kg/m3 and 988.5 kg/m3
4385.8 kPa | 988.4 kg/m3
4385.9 kPa | 988.3 kg/m3 and 988.4 kg/m3 and 988.5 kg/m3
4386 kPa | 988.4 kg/m3 and 988.3 kg/m3
4386.1 kPa | 988.5 kg/m3 and 988.4 kg/m3 and 988.3 kg/m3
4386.2 kPa | 988.4 kg/m3
4386.5 kPa | 988.5 kg/m3
4386.7 kPa | 988.4 kg/m3
4387 kPa | 988.3 kg/m3 and 988.4 kg/m3
4387.4 kPa | 988.4 kg/m3
4388.1 kPa | 988.3 kg/m3
4388.6 kPa | 988.5 kg/m3
4392.2 kPa | 988.4 kg/m3
4392.3 kPa | 988.5 kg/m3
4393.3 kPa | 988.3 kg/m3
4394 kPa | 988.5 kg/m3
4394.1 kPa | 988.5 kg/m3
4394.5 kPa | 988.4 kg/m3
4394.7 kPa | 988.4 kg/m3
4395.2 kPa | 988.5 kg/m3 and 988.4 kg/m3
4395.7 kPa | 988.4 kg/m3
4396 kPa | 988.4 kg/m3
4396.2 kPa | 988.5 kg/m3
4396.6 kPa | 988.4 kg/m3
4401.3 kPa | 988.5 kg/m3
4404.8 kPa | 988.5 kg/m3
4409.8 kPa | 988.5 kg/m3
4413.5 kPa | 988.4 kg/m3
4417.1 kPa | 988.4 kg/m3
4421.1 kPa | 988.4 kg/m3
4425.8 kPa | 988.5 kg/m3
4429.6 kPa | 988.5 kg/m3
4433.4 kPa | 988.4 kg/m3
4437.9 kPa | 988.4 kg/m3
4441.9 kPa | 988.6 kg/m3
4445.5 kPa | 988.5 kg/m3
4450.3 kPa | 988.4 kg/m3
4452.1 kPa | 988.5 kg/m3
4456.8 kPa | 988.4 kg/m3
4460.9 kPa | 988.4 kg/m3
4464.4 kPa | 988.4 kg/m3
4469.4 kPa | 988.4 kg/m3
4473.1 kPa | 988.5 kg/m3
4476.9 kPa | 988.5 kg/m3
4480.5 kPa | 988.4 kg/m3
4485.5 kPa | 988.4 kg/m3
4489.5 kPa | 988.4 kg/m3
4493.3 kPa | 988.5 kg/m3
4498.2 kPa | 988.4 kg/m3
4502.1 kPa | 988.4 kg/m3
4505.9 kPa | 988.5 kg/m3
4509.9 kPa | 988.5 kg/m3
4513.7 kPa | 988.6 kg/m3
4518.2 kPa | 988.4 kg/m3
4521.7 kPa | 988.5 kg/m3
4525.7 kPa | 988.5 kg/m3
4529.3 kPa | 988.5 kg/m3
4533.1 kPa | 988.5 kg/m3
4539.2 kPa | 988.5 kg/m3
4548.9 kPa | 988.4 kg/m3
4556.8 kPa | 988.5 kg/m3
4564.8 kPa | 988.5 kg/m3
4572.9 kPa | 988.5 kg/m3
4583.2 kPa | 988.6 kg/m3
4591.3 kPa | 988.5 kg/m3
4599.9 kPa | 988.5 kg/m3
4607.7 kPa | 988.6 kg/m3
4617.4 kPa | 988.5 kg/m3
4625.9 kPa | 988.5 kg/m3
4635.9 kPa | 988.4 kg/m3
4644.3 kPa | 988.5 kg/m3
4652.7 kPa | 988.5 kg/m3
4663.3 kPa | 988.5 kg/m3
4671.8 kPa | 988.5 kg/m3
4680.4 kPa | 988.5 kg/m3
4689.1 kPa | 988.6 kg/m3
4697.7 kPa | 988.5 kg/m3
4708.3 kPa | 988.6 kg/m3
4717 kPa | 988.6 kg/m3
4726.5 kPa | 988.6 kg/m3
4737 kPa | 988.7 kg/m3
4746.4 kPa | 988.9 kg/m3
4755 kPa | 988.6 kg/m3
4774.4 kPa | 988.7 kg/m3
4781.5 kPa | 988.6 kg/m3
4786.9 kPa | 988.6 kg/m3
4792.4 kPa | 988.5 kg/m3
4799.3 kPa | 988.6 kg/m3
4804.7 kPa | 988.7 kg/m3
4810.6 kPa | 988.6 kg/m3
4816.1 kPa | 988.7 kg/m3
4823 kPa | 988.6 kg/m3
4828.9 kPa | 988.7 kg/m3
4834.3 kPa | 988.7 kg/m3
4841.2 kPa | 988.6 kg/m3
4847.3 kPa | 988.7 kg/m3
4853.2 kPa | 988.7 kg/m3
4858.7 kPa | 988.6 kg/m3
4865.8 kPa | 988.6 kg/m3
4871.7 kPa | 988.8 kg/m3
4877.4 kPa | 988.7 kg/m3
4884.1 kPa | 988.6 kg/m3
4890 kPa | 988.7 kg/m3
4895.9 kPa | 988.8 kg/m3
4902.8 kPa | 988.7 kg/m3
4908.7 kPa | 988.8 kg/m3
4914.6 kPa | 988.7 kg/m3
4920.6 kPa | 988.8 kg/m3
4927.9 kPa | 988.7 kg/m3
4934 kPa | 988.7 kg/m3
4940 kPa | 988.7 kg/m3
4946.3 kPa | 988.7 kg/m3
4953 kPa | 988.7 kg/m3
4959.8 kPa | 988.6 kg/m3
4965.7 kPa | 988.6 kg/m3
4971.9 kPa | 988.7 kg/m3
4978 kPa | 988.8 kg/m3
4985.2 kPa | 988.8 kg/m3
4991.3 kPa | 988.8 kg/m3
4997.3 kPa | 988.9 kg/m3
5004.4 kPa | 988.8 kg/m3
5010.7 kPa | 988.7 kg/m3
5016.9 kPa | 988.8 kg/m3
5023.1 kPa | 988.7 kg/m3
5031.1 kPa | 988.7 kg/m3
5036.4 kPa | 988.8 kg/m3
5043.4 kPa | 988.8 kg/m3
5049.8 kPa | 988.8 kg/m3
5057 kPa | 988.9 kg/m3
5063.3 kPa | 988.7 kg/m3
5069.3 kPa | 988.8 kg/m3
5075.9 kPa | 988.8 kg/m3
5083.3 kPa | 988.9 kg/m3
5089.6 kPa | 988.9 kg/m3
5095.8 kPa | 988.8 kg/m3
5103.7 kPa | 988.7 kg/m3
5110 kPa | 988.8 kg/m3
5116.5 kPa | 988.9 kg/m3
5122.9 kPa | 988.8 kg/m3
5129 kPa | 988.9 kg/m3
5137 kPa | 988.9 kg/m3
5192 kPa | 988.9 kg/m3
5198.7 kPa | 988.9 kg/m3
5206.7 kPa | 989 kg/m3
5213.1 kPa | 989 kg/m3
5219.7 kPa | 988.8 kg/m3
5227.4 kPa | 988.8 kg/m3
5234.2 kPa | 988.9 kg/m3
5241.1 kPa | 988.9 kg/m3
5247.7 kPa | 988.9 kg/m3
5255.5 kPa | 988.9 kg/m3
5262.2 kPa | 988.9 kg/m3
5269 kPa | 988.9 kg/m3
5277.1 kPa | 989 kg/m3
5284.2 kPa | 988.9 kg/m3
5291.1 kPa | 988.9 kg/m3
5298.2 kPa | 988.9 kg/m3
5306.7 kPa | 988.9 kg/m3
5313.1 kPa | 988.9 kg/m3
5319.7 kPa | 989 kg/m3
5326.9 kPa | 988.9 kg/m3
5335.6 kPa | 988.9 kg/m3
5342.3 kPa | 988.9 kg/m3
5349.4 kPa | 988.9 kg/m3
5357.5 kPa | 989 kg/m3
5365 kPa | 988.9 kg/m3
5371.7 kPa | 989 kg/m3
5380.2 kPa | 989 kg/m3
5387.5 kPa | 989 kg/m3
5394.7 kPa | 988.9 kg/m3
5401.6 kPa | 989.1 kg/m3
5410.1 kPa | 989 kg/m3
5417.6 kPa | 989 kg/m3
5424.8 kPa | 988.9 kg/m3
5433.5 kPa | 989 kg/m3
5440.6 kPa | 989.1 kg/m3
5447.7 kPa | 989.1 kg/m3
5455.3 kPa | 989 kg/m3
5463.1 kPa | 989.1 kg/m3
5471.2 kPa | 989.1 kg/m3
5478.6 kPa | 989 kg/m3
5485.9 kPa | 989.1 kg/m3
5494.7 kPa | 989.1 kg/m3
5502.5 kPa | 989.1 kg/m3
5509.9 kPa | 989 kg/m3
5517.5 kPa | 989.1 kg/m3
5526.7 kPa | 989.1 kg/m3
5534 kPa | 989.2 kg/m3
5541.8 kPa | 989.2 kg/m3
5549 kPa | 989.1 kg/m3
5565.4 kPa | 989.1 kg/m3
5582.7 kPa | 989.1 kg/m3
5591.5 kPa | 989.2 kg/m3
5599.8 kPa | 989.1 kg/m3
5607.5 kPa | 989.2 kg/m3
5615.5 kPa | 989.2 kg/m3
5624.1 kPa | 989.1 kg/m3
5632.1 kPa | 989.2 kg/m3
5640 kPa | 989.1 kg/m3
5649.2 kPa | 989.2 kg/m3
5657 kPa | 989.3 kg/m3
5665.1 kPa | 989.1 kg/m3
5674.3 kPa | 989.1 kg/m3
5682.4 kPa | 989.1 kg/m3
5690.4 kPa | 989.2 kg/m3
5697.6 kPa | 989.2 kg/m3
5705.8 kPa | 989.1 kg/m3
5714.2 kPa | 989.3 kg/m3
5724.3 kPa | 989.1 kg/m3
5732.6 kPa | 989.2 kg/m3
5739.8 kPa | 989.3 kg/m3
5774.2 kPa | 989.2 kg/m3
5783.6 kPa | 989.3 kg/m3
5791.5 kPa | 989.2 kg/m3
5800 kPa | 989.2 kg/m3
5810.4 kPa | 989.3 kg/m3
5818.7 kPa | 989.3 kg/m3
5827 kPa | 989.3 kg/m3
5837 kPa | 989.3 kg/m3
5845 kPa | 989.2 kg/m3
5854.3 kPa | 989.2 kg/m3
5862.6 kPa | 989.3 kg/m3
5871.8 kPa | 989.2 kg/m3

Reference: the NIST ThermoML archive (doi:10.1021/je060271a)
